Consider 2 compounds from US7846937B2, “Cyclopropanecarboxylate esters of acyclovir” (Eli Lilly and Company, priority 2005, dated 2010).

Each structure is given as a SMILES string. Where two headings read alike, the source gives them in different places. Where only a bound is given, the exact number is not on record here.

The data set in a line: Hydrolytic stability in buffered aqueous solutions (HPLC). Type of data set: physicochemical. The settings on record: 40° C., read-out: t1/2 (hr) at 40° C. (converted). The protocol:
Hydrolytic stability of valacyclovir and 1-amino-cyclopropanecarboxylic acid 2-(2-amino-6-oxo-1,6-dihydro-purin-9-ylmethoxy)-ethyl ester trifluoroacetic acid salt
Test samples of valacyclovir and 1-amino-cyclopropanecarboxylic acid 2-(2-amino-6-oxo-1,6-dihydro-purin-9-ylmethoxy)-ethyl ester trifluoroacetic acid salt (Example 1) are dissolved in buffered solutions of known pH at a concentration of 100 mcg/mL. Compound samples are prepared in 0.1 N hydrochloric acid for pH 1 and phosphate based buffer for pH2, 4, 6, 8 and 10. Stability is conveniently assessed using a semi-automated HPLC technique. Compound samples are loaded onto an HPLC autosampler incubated at 40° C. Samples are repeatedly injected on the HPLC at specific time intervals. The peak area of the compound samples are monitored by UV detection.
The HPLC system consisted of an Agilent® 1100 autoinjector, pump, degasser and LV detector. A Waters® Atlantis dC-18 column (3 micron, 150×4.6 mm I.D.) is used to separate the degradation products from the compound sample. An isocratic reversed-phase system using ultraviolet detection is used to monitor the peak areas of the compound sample over a 24 hour period. The mobile phase composition is 5% acetonitrile and 95% water with 0.1% trifluoroacetic acid added to the mixture. The flow rate is 1.5 mL/min. The column temperature is 30 degrees Celsius and the injection volume was 10 μL. The UV detector is set at 256 nm and the run time was 9 minutes. Time points are analyzed every 2 hours for each buffer while being incubated at 40 degrees Celsius by the thermostat controlled autosampler.
The peak area of the compound sample is monitored over a 24 hour period at 2 hour intervals. The peak area of the compound sample is plotted versus time for each of the buffers tested. A first order calculation is used to determine the rate constant for each buffer based on the loss of peak area over time. The half-life, in hours, is calculated by dividing 0.693 by the rate constant (k). t1/2 (hr)=0.693/k.

[1] abbreviates: pH = 1, 0.1 N hydrochloric acid.
Setting [2] is: pH = 10, phosphate based buffer.

With `Nc1nc2c(ncn2COCCOC(=O)C2(N)CC2)c(=O)[nH]1.O=C(O)C(F)(F)F` [Example 1, 1-amino-cyclopropanecarboxylic acid 2-(2-amino-6-oxo-1,6-dihydro-purin-9-ylmethoxy)-ethyl ester trifluoroacetic acid salt], the half-life at 100 mcg/mL was over 300 h under setting [1]; over 300 h (pH = 2, phosphate based buffer); over 300 h (pH = 4, phosphate based buffer); over 300 h (pH = 6, phosphate based buffer); 90.1 h (pH = 8, phosphate based buffer); 23.8 h under setting [2].
Turning to `CC(C)[C@H](N)C(=O)OCCOCn1cnc2c(=O)[nH]c(N)nc21` [valacyclovir, 2(2-amino-1,6-didydro-6-oxo-9H(purin-9-yl)methoxy)ethyl L-valinate], the half-life at 100 mcg/mL runs as follows: under setting [1], over 300 h; (pH = 2, phosphate based buffer) over 300 h; (pH = 4, phosphate based buffer) over 300 h; (pH = 6, phosphate based buffer) 69.7 h; (pH = 8, phosphate based buffer) 7.8 h; under setting [2], 6.8 h.
